Measured values from patent publication US8637556B2, “Linked Myc-max small molecule inhibitors” (University of Pittsburgh—Of the Commonwealth System of …, priority 2009, dated 2014).
Like-named read-outs stand apart in the source and are kept apart here.

Experiments:
[1] = system: Daudi Burkitt lymphoma cells; assay: Burkitt's lymphoma cell growth inhibition (MTT assay); type: cell-based; details: Homo sapiens, Table 3, MTT, third day, read-out: Growth inhibition BL
Procedure: (§1) These assays were performed as previously described using HL60 promyelocytic leukemia cells and Daudi Burkitt lymphoma cells, each of which expresses high levels of endogenous c-Myc (Wang, H. et al. Mol. Cancer Ther. 6, 2399-408 (2007)). As controls for non-specific effects of bivalent compounds, we utilized a c-Myc nulllizygous strain of rat fibroblasts (Mateyak, M. K., et al. Cell Growth & Differentiation 8, 1039-48 (1997)) expressing the c-Myc target genes MT-MC1 and HMGAIb, each of which restores a normal growth rate as well as the TGR1 fibroblast line from which the nullizygous line was derived (Wang, H. et al. Mol. Cancer Ther. 6, 2399-408 (2007); Mateyak, M. K., et al. Cell Growth & Differentiation 8, 1039-48 (1997); and Rothermund, K. et al. Cancer Research 65, 2097-107 (2005)). […] Cell quantification was performed on triplicate wells over the ensuing 4-5 days without changing the medium by measuring the absorbance at 490 nm using the MTT assay (Mosmann, T. Journal of Immunological Methods 65, 55-63 (1983)). IC50 values were estimated from linear regression of the inhibition data at the third day of each experiment.
(§2) We evaluated the efficacy of the linked compounds 11, 12, 13, 16, 17, 18 in inhibiting the c-Myc-Max interaction by measuring the binding of a target DNA sequence (E-Box) by the protein heterodimers in an electrophoretic mobility shift assay (EMSA). […] A fluorinated substitute of 14, 24, the choice of which was based upon the results of structure activity relationship studies described in Wang, H. et al. (Mol. Cancer Ther. 6, 2399-408 (2007)), was employed at this purpose (Muller, K., et al. Science 317, 1881-6 (2007) and Kirk, K. L. Current Topics in Medicinal Chemistry 6, 1447-56 (2006)).

[2] = system: HL60 promyelocytic leukemia cells; assay: HL60 cell growth inhibition (MTT assay); type: cell-based; details: Homo sapiens, HL-60; Table 3; MTT, third day; read-out: Growth inhibition HL60
Procedure: as §1, §2

[3] = target: T1, c-Myc353-437 (monomeric c-Myc bHLH-ZIP) (Homo sapiens, UniProt P01106); assay: Fluorescence polarization titration, c-Myc bHLH-ZIP binding; details: for c-Myc binding affinity (in words): FP; for Kd: Table 1
T1 construct: recombinant monomeric c Myc bHLH-ZIP (amino acids 353-437); 6xHis with TEV site (N, cleaved yes); made in house; host or cells: E. coli BL21DE3(pLysS)
Excerpt: A c-Myc353-437 full-length bHLH-ZIP domain and its truncated version c-Myc390-439 were produced from the c-Myc/pET SKB3 construct, kindly supplied by Dr. S. K. Nair (University of Illinois, Urbana-Champaign), by insertion into the pET151D vector, encoding an N-terminal hexahistidine (6× His), separated by a TEV protease digestion site, with the TOPO® ligation system, and over-expressed in E. coli BL21DE3(pLysS). The 6× His tagged human Max isoform p21, with low homodimerization affinity^70, cloned into the pQE10 vector (Qiagen, Inc.), was over-expressed in E. coli M15(pRep4). Bacterial cultures were grown at 37° C. in LB medium to OD600≈0.8, then induced with 0.5 mM IPTG for 5 hours. Proteins were purified by Ni-agarose chromatography with a pH gradient elution. The 6× His tag of c-MYC353-437 and c-Myc390-439 was cleaved using TEV protease (the TEV protease was expressed in a pET24 vector [courtesy of S. K. Nair] and purified by Ni-agarose chromatography under native conditions). All the proteins were further purified by HPLC and lyophilized. Protein concentrations were determined by measurement of OD280. The synthetic peptide c-Myc363-381 is described in Follis, A. V., Hammoudeh, D. I., Wang, H., Prochownik, E & Metallo, S. J. Structural rationale for the coupled binding and unfolding of the c-Myc oncoprotein by small molecules. Chemistry & Biology 15, 1149-1155 (2008).
Samples were analyzed in a Photon Technology International QuantaMaster fluorimeter (Birmingham, N.J.) equipped with polymer sheet polarizers. Titration experiments were performed upon serial dilution of 1:1 equimolar solution of inhibitor and either c-Myc353-437, c-Myc390-439 or c-Myc363-381 in a 1×PBS buffer (137 mM NaCl, 2.7 mM KCl, 4.3 mM Na2HPO4, 1.4 mM KH2PO4, pH=7.4), 5% DMSO, over concentrations ranging between 200 μM and 1.5 nM. Excitation and emission wavelengths were independently determined for each inhibitor. Reported data represent the average of at least three independent experiments. Data were fit to a quadratic equation derived from the thermodynamic expression of binding equilibrium:
[formula] where [C]0 represents the total concentration of inhibitor and of c-Myc peptide. The value of KD was determined from the experimental polarization data by fitting to Eq. 2 using KaleidaGraph (Synergy Software, Reading, Pa.) where pol0 is the polarization in the absence of binding and Δpol is the total change in polarization (Park, S. H. & Raines, R. T. Fluorescence polarization assay to quantify protein-protein interactions. Methods in Molecular Biology 261, 161-6 (2004)).
[formula] Due to the very tight binding of some of the tested compounds, it was impossible to perform a full binding titration with an acceptable fluorescence intensity, therefore the polo parameter was experimentally determined from samples of each compound in the absence of c-Myc353-437 at a concentration of 25 μM. Binding specificity experiments were performed by monitoring the FP of 10 μM inhibitors solutions in the above-described buffer in the presence of equimolar p21 Max. […] Circular Dichroism.
Also in this case the c-Myc binding affinity was little affected by the introduction of the linker chain (Table 1, FIG. 11).
We then measured the affinity of the synthesized bivalent inhibitors, by monitoring the FP of the compounds nitrobenzofurazan moiety. […] The estimated free energy of binding of the bivalent compounds was roughly proportional to the sum of those of their monovalent components. In the thermodynamic analysis of multivalent binding a ΔG^s term is used to relate the free energy of binding of a multivalent compound to the sum of those of its monovalent components. This term implies the diverse energy contributions resulting from the linking of independent binding components. The ΔG^s term generally constitutes a negative contribution to the binding affinity of distinct binding components connected by a flexible linker to a given target.

[4] = FP titration with c-Myc353-437, 1xPBS pH 7.4, 5% DMSO, read-out: KD (c-Myc affinity, monovalent)

T1 sequence (P01106 368-452): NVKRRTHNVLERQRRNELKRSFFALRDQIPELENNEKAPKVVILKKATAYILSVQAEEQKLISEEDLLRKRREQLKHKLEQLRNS

## CCc1ccc(C=C2SC(=S)NC2=O)cc1 [compound 2, (Z,E)-5-(4-ethyl-benzylidene)-2-thioxo-thiazolidin-4-one, reference compound]
[1]
  IC50: 40 µM
[2]
  IC50: 50 µM

## O=[N+]([O-])c1ccc(Nc2ccccc2)c2nonc12 [compound 3]
[3]
  c-Myc binding affinity (in words): minor loss of c-Myc affinity
[3]; [4]
  Kd: 7 ± 1 µM

## CN(C)c1ccc([N+](=O)[O-])c2nonc12 [compound 4]
[3]
  c-Myc binding affinity (in words): complete loss of binding affinity
[3]; [4]
  Kd: > 200 µM

## O=C(O)c1ccccc1Nc1ccc([N+](=O)[O-])c2nonc12 [compound 5]
[3]; [4]
  Kd: 13 ± 5 µM

## O=C(O)c1cccc(Nc2ccc([N+](=O)[O-])c3nonc23)c1 [compound 6]
[3]; [4]
  Kd: 16 ± 6 µM

## O=C(O)c1ccc(Nc2ccc([N+](=O)[O-])c3nonc23)cc1 [compound 7]
[3]; [4]
  Kd: 3 ± 1 µM
[3]; relative to compounds 5 and 6
  c-Myc binding, times tighter than 5 and 6: ~5 times

## CC(=O)NCCCCCNC(=O)c1ccc(C=C2SC(=S)NC2=O)cc1 [compound 10]
[3]; [4]
  Kd: 90 ± 40 µM

## CCc1ccc(C=C2SC(=O)N(CCCCNC(=O)c3ccc(Nc4ccc([N+](=O)[O-])c5nonc45)cc3)C2=O)cc1 [compound 21]
[1]
  IC50: 14 to 16 µM
[2]
  IC50: 7 to 9 µM
[3]; FP of nitrobenzofurazan moiety, c-Myc353-437, read-out: KD (c-Myc affinity, bivalent)
  Kd: 0.004 ± 0.001 µM
